# Measured values reported in patent US7217833B2, “Carboxylic acid compounds for use as surfactants” (Glaxco Group Limited, priority 2002, dated 2007).
# Tests used:
# Assay type in all cases: physicochemical
# [1] = Content uniformity by dose through use testing; conditions: Initial timepoint, 10% w/w surfactant
# Experimental: (§1) Salmeterol xinafoate formulations in HFA 134a, of strength 25 μg per actuation, and 10% w/w (relative to drug) of the relevant surfactant compound of formula (I) were prepared in crimped glass bottles using salmeterol xinafoate (8.7 mg), HFA 134a (18 g) and the relevant compound (0.87 mg). The control was prepared without the addition of a surfactant.
# The content uniformity of the formulation, the preparation of which is described above, was assessed by dose through use testing. Testing was performed on 10 cans/inhalers at “beginning of use” (BoU) and “end of use” (EoU). After each inhaler had been primed (4 shots fired to waste), actuations 1 and 2 (BoU) were collected. The next 116 actuations of each inhaler were then fired to waste using an automated method and actuations 119 and 120 (EoU) collected.
# Assessment of content uniformity was performed at the initial timepoint (following sample preparation). Mean results from the two BoU actuations (1+2 for 10 inhalers) and the two EoU actuations (119+120 for same 10 inhalers) together with the percentage relative standard deviation (% RSD) for the 10 cans are shown in Table 3. […] The presence of the surfactant therefore improves the content uniformity of the inhaler. Furthermore the formulations containing the compound of Example 1, advantageously, show a reduction in the relative standard deviation at the BoU and EoU.
# [2] = Particle size by image analysis (Galai CIS-100) of salmeterol xinafoate suspension in HFA 134a
# Experimental: as §1
# In this measurement, particle size is represented as the equivalent diameter of a circle of equal area to the object. The mean is the average of 4 determinations. The particle size measurement was obtained by transferring the suspensions to a pressurised cell, and video-imaging the sample under shear via a microscope objective.
# The equivalent diameter is defined as the diameter of a circle of equal area to the object.
# The mean equivalent diameter can be weighted by number, length or volume. e.g. For three particles with equivalent diameters of x, y and z: […]
# [3] = Andersen Cascade Impaction of salmeterol xinafoate HFA 134a formulation; conditions: Initial timepoint, beginning of use, mean of 3 cans/inhalers, 10% w/w surfactant
# Experimental: as §1
# The formulation, the preparation of which is described above, was profiled using an Andersen Cascade Impactor. Ten actuations at “beginning of use” (BoU) were collected in the impactor from an inhaler after 4 priming actuations were fired to waste. The drug delivered was then quantified by HPLC analysis. Testing was performed at the initial timepoint (following sample preparation). The results, in Table 2 are shown as the mean analysis of 3 cans/inhalers.
# The profile obtained was used to determine total dose emitted dose (ex-valve and ex-actuator) and the fine particle mass (FPM, defined as the sum of stages 3–5). The percentage fine particle mass expresses the FPM as a percentage of the total dose emitted (ex-valve). The FPM is used as a measure of the proportion of the drug likely to reach the therapeutic target in the lungs.
structure (smiles),measurement,setting,value
"O=C(CCC(F)(F)C(F)(F)F)OCC(OC(=O)CCC(F)(F)C(F)(F)F)C(=O)O (centres unmarked) [Example 1, 2,3-Bis[(4,4,5,5,5-pentafluoronentanoyl)oxy]propanoic acid]",BoU dose,"[1]; actuations 1+2, mean of 10 inhalers",21.2 µg
same,EoU dose,"[1]; actuations 119+120, mean of 10 inhalers",25.1 µg
same,Mean Length weighted diameter,"[2]; salmeterol xinafoate 25 μg per actuation in HFA 134a with 10% w/w (relative to drug) surfactant, mean of 4 determinations",21.5 μm
same,suspension stabilising properties (flocculation of drug particles),[2]; salmeterol xinafoate formulation in HFA 134a with 10% w/w surfactant,has suspension stabilising properties
same,Total Dose Emitted (Ex-Actuator),[3]; 10 actuations,21.1 µg
same,Total Dose Emitted (Ex-Valve),[3]; 10 actuations,23.9 µg
same,% FPM (FPM as percentage of total dose emitted ex-valve),[3],50.3%
same,"FPM (fine particle mass, sum of stages 3–5)",[3],12.0 µg
